Data reported in paper PMC9794833, “Ligand recognition and activation of neuromedin U receptor 2” (Nature Communications, 2022).
pEC50: −log10 of the molar value. Where “and” joins values, the source holds several entries; their conditions need not be identical. Identical values can stand only once. Like-named read-outs stand apart in the source and are kept apart here. Where no end group is shown, it is not given here.

Legend:
[1] = target: T1, NMU2 engineered construct (Homo sapiens, UniProt Q9GZQ4); assay: TRUPATH assay, engineered NMU2 construct used for cryo-EM; format: cell-based
T1 construct: HA signal peptide (N); Flag (N); PreScission protease site (C); twin-strep (C); expressed in transfected cells
T1 sequence (Q9GZQ4 1-355 limits assumed, change not shown): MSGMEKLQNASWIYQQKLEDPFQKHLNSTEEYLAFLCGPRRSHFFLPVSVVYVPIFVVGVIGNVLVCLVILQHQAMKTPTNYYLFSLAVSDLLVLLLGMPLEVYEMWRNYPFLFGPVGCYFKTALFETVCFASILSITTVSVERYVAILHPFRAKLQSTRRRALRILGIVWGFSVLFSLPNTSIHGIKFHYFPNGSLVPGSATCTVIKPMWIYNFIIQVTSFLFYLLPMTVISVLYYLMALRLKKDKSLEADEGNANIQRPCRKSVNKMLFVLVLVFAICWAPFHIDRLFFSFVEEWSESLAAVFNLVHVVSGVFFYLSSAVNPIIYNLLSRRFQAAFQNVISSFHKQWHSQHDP
Excerpt: To facilitate expression and purification of the NmU-25–NMU2–Gi1 complex, a hemagglutinin (HA) signal peptide followed by a flag tag was introduced at the N terminus of NMU2, while the flexible C-terminal residues of the receptor (Q356-T415) were replaced by a PreScission protease site followed by a twin-strep affinity tag (Supplementary Fig. 1a, b). […] Dominant-negative Gαi1 (DNGαi1) containing five mutations (S47C, G202T, G203A, E245A, and A326S) was used to improve the stability of the complex as these mutations lead to a preference for a nucleotide-free state, and prevent the dissociation of Gβγ from the heterotrimer[20],[21]. Over 8700 movies were collected, and the structure of the NmU-25–NMU2–Gi1 complex was determined by cryo-EM single-particle analysis at a global nominal resolution of 3.3 Å (Supplementary Fig. 2a–f, Supplementary Table 1). […]
The plasmids of Gαi1, Gβ3, and Gγ9 used for the TRUPATH assay were purchased from Addgene (TRUPATH Kit, #1000000163). […] The expression level of the receptor was measured by incubating 10 μl cells with 15 μl TBS buffer supplemented with 4% bovine serum albumin, 20% (v/v) viability staining solution7-AAD (Invitrogen, Cat#00-6993-50), and ANTI-FLAG M2-FITC antibody (Sigma, F4049; 1:100 diluted by TBS) at 4 °C for 20 min. […] Data were processed and analyzed following the method in the literature by using GraphPad Prism 8.0.

[2] = target: T2, NMU2 H43E (Homo sapiens, UniProt Q9GZQ4, H43E); assay: TRUPATH assay, NMU2 mutant H43E; format: cell-based; conditions: H43E
T2 construct: HA signal peptide (N); expressed in transfected cells; host or cells: HEK 293F
T2 sequence (Q9GZQ4 whole entry H43E): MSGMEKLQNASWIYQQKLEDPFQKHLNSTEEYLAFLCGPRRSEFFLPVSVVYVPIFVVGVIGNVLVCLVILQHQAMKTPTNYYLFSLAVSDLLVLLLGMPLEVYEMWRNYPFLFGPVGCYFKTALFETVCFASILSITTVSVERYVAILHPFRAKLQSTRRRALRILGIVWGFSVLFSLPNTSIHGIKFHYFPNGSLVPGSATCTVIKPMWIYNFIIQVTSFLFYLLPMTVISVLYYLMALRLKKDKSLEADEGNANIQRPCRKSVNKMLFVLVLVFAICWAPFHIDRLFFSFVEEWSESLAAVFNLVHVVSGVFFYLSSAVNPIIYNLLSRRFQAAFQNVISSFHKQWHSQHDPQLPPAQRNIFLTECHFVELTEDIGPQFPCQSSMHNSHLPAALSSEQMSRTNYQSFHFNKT
Procedure: The plasmids of Gαi1, Gβ3, and Gγ9 used for the TRUPATH assay were purchased from Addgene (TRUPATH Kit, #1000000163). NMU2 constructs of WT and mutants were constructed into a PTT5 vector (Invitrogen) with an N-terminal HA signal peptide followed by a Flag tag. HEK 293F cells were transiently transfected with WT or mutants of NMU2, Gαi1, Gβ3, and Gγ9 at an […] ratio of 4:1:1:1 with a total of 3500 ng plasmid DNA using a transfection reagent (PEI MAX 2000, Polysciences) and cultivated at 37 °C with 5 % CO2. Cells were collected after 48-h transfection. The expression level of the receptor was measured by incubating 10 μl cells with 15 μl TBS buffer supplemented with 4% bovine serum albumin, 20% (v/v) viability staining solution7-AAD (Invitrogen, Cat#00-6993-50), and ANTI-FLAG M2-FITC antibody (Sigma, F4049; 1:100 diluted by TBS) at 4 °C for 20 min. After incubation, 175 μl TBS buffer was added, and the fluorescence signal on the cell surface was detected by an FCM (flow cytometry) reader (Millipore). The cells were diluted with 1× HBSS (Hank’s balanced salt solution) balanced buffer supplemented with 25 mM HEPES, pH 7.4, and seeded onto the 96-well opaque cell culture plates (Beyotime) at a density of 18,000 cells per well by 60 μl. Freshly prepared 50 μM coelenterazine 400a (Nanolight Technologies) was added into the well by 10 μl. After a 5 min equilibration time in the darkness, plates were then read in a Synerg^TM H1 microplate reader (BioTek) with excitation at 395 nm and emission at 410 and 515 nm by serially three times. Then, 30 μl of 3.3× agonists were added into the wells with a gradient final concentration from 10^−4–10^−13 M. Plates were read immediately again by serially five times. Data were processed and analyzed following the method in the literature by using GraphPad Prism 8.0.

FRVDEEFQSPFASQSRGYFLFRPRN-NH2 [NmU-25] was tested, and the “G protein activation (TRUPATH), dose-response point” value (from here on “G protein activation (TRUPATH)”) ([1]; Log [agonist] M -5) was 104.095 and 133.885 and 136.246, the “G protein activation (TRUPATH)” value ([1]; Log [agonist] M -6) was 76.3981 and 114.895 and 125.038 and the “EC50 ratio EC50(mutant)/EC50(WT)” value [2] was 11. The “Span (window between Emax and minimal agonist response)” value [2] was 135±8 % of WT, the “G protein activation (TRUPATH)” value ([2]; Log [agonist] M -4) was 115.78 and 106.024 and 146.553 and 103.896 and the “G protein activation (TRUPATH)” value ([2]; Log [agonist] M -6) was 81.3432 and 53.8154 and 89.1078 and 81.5652. For the same substance, the “ΔpEC50 (from WT)” value ([2]; individual experiments) was -0.8963 and -0.6313 and -0.3476 and -0.5879, the pEC50 ([2]; read-out: EC50) was 6.44 and the EC50 ([2]; read-out: pEC50 mean±SEM (converted)) was 363 nM.
